Data reported in article PMC10819771 (Pharmaceuticals, 2023).
Read-outs that look alike come from different tables or passages of the source.

Assays:
[1] = system: A2780; test: MTT antiproliferative assay, A2780; type: cell-based, human; settings: for IC50: Homo sapiens, A2780, MTT, 72 h, ovarian cancer cells, read-out: IC50 Values (μM) ± SEM A2780
Experimental: (§1) The growth-inhibitory effects of the compounds were determined by MTT (3-(4,5-dimethylthiazol-2-yl)-2,5-diphenyltetrazolium bromide) assay on selected cell lines, including HeLa and SiHa (cervical cancers), MDA-MB-231 and MCF-7 (breast cancers), and A2780 ovarian cancer cells. All cell lines were purchased from the European Collection of Cell Cultures (Salisbury, UK) except SiHa, which was obtained from the American Tissue Culture Collection (Manassas, VA, USA). The cells were kept in minimum essential medium supplemented with 10% fetal bovine serum, 1% non-essential amino acids, and 1% penicillin-streptomycin-amphotericin-B at 37 °C in a humidified atmosphere containing 5% CO2. Media and supplements were obtained from Lonza Group Ltd., (Basel, Switzerland). Cancer cells were seeded onto 96-well plates (5000 cells/well), after an overnight incubation the test compounds were added in six concentrations (0.1, 0.3, 1.0, 3.0, 10.0, 30.0 µM) and incubated for 72 h under cell-culture condition. After the incubation, 20 μL of 5 mg/mL MTT solution was added to each well and incubated for a further 4 h. The medium was removed, and the precipitated formazan crystals were dissolved in DMSO for 30 min under shaking at 37 °C. The absorbance was measured at 545 nm with a microplate reader. Untreated cells were included as controls. Calculations were performed by means of the GraphPad Prism 5.01 software (GraphPad Software Inc., San Diego, CA, USA). At least two independent determinations were performed with 5 parallel wells for each condition.

[2] = system: K562; test: MTS cell proliferation assay, K562; type: cell-based, human; settings: for IC50: Homo sapiens, K562, 72 h, MTS, 3-day incubation, leukemia cells, read-out: IC50 Values (μM) ± SEM K562
Experimental: The human leukemic cell line K562 was grown in RPMI 1640 medium (Life Technology-Invitrogen by Thermo Fisher Scientific, Saint-Aubin, France) supplemented with 10% fetal calf serum (FCS), antibiotics (100 U/mL penicillin, 100 µg/mL streptomycin), and L-glutamine, (Eurobio, Les Ulis, France) at 37 °C, 5% CO2 in air. The MTS cell proliferation assay (Promega, Charbonnières-les-Bains, France) is a colorimetric assay system, which measures the transformation of a tetrazolium component (MTS) into formazan produced by the mitochondria of viable cells. Cells were washed twice in PBS (Phosphate Buffer Saline) and plated in quadruplicate into microtiter-plate wells in 100 μL culture media with or without our various compounds at increasing concentrations (0, 1, 5, 10, 20, and 50 μM) for 1, 2, and 3 days. After 3 h of incubation at 37 °C with 20 μL MTS/well, the plates were read using an ELISA microplate reader (Thermo, Electrocorporation, Waltham, MA, USA) at 490 nm. The amount of color produced was directly proportional to the number of viable cells. The results are expressed as the concentrations inhibiting cell growth by 50% after a 3-day incubation period. The 50% cytotoxic concentrations (CC50) were determined by linear regression analysis, expressed in μM ± SD (Microsoft Excel).

[3] = system: HeLa; test: MTT antiproliferative assay, HeLa; type: cell-based, human; settings: for IC50: Homo sapiens, HeLa, MTT, 72 h, cervical cancer cells, read-out: IC50 Values (μM) ± SEM HeLa
Experimental: as §1

[4] = system: human telomeric sequence F21T; test: FRET-melting, F21T; type: binding; settings: DNA 0.2 μM, 10 mM KCl, 90 mM LiCl, pH 7.2
Experimental: (§2) FRET-melting experiments were conducted on a Stratagene MX3005P (Thermo Fisher Scientific, Illkirch-Graffenstaden, France) real-time PCR equipment in 96-well plates on the DNA sequences reported in Table 4. Experiments were performed in 10 mM lithium cacodylate buffer (pH 7.2) and either 10 mM KCl and 90 mM LiCl (FK-RAST, FBCL-2T, F21T, and FdxT) or 1 mM KCl and 99 mM LiCl (Fc-MYCT) concentrations, depending on the Tm of the G4s alone. The DNA concentration was 0.2 µM. […] Data are presented as an average of three independent measurements, each conducted in duplicate conditions (λexc = 492 nm, λem = 516 nm, T interval = 25–95 °C, ramp: 25 °C for 5 min, then 1 °C/min, measurements every 1 °C, 8× magnification of the fluorescence signal).

[5] = system: Fc-MYCT; test: FRET-melting, Fc-MYCT; type: binding; settings: DNA 0.2 μM, K+ conditions, pH 7.2
Experimental: as §2

[6] = system: MCF-7; test: MTT antiproliferative assay, MCF-7; type: cell-based, human; settings: for IC50: MTT, 72 h, breast cancer cells, read-out: IC50 Values (μM) ± SEM MCF-7
Experimental: as §1

[7] = system: FdxT; test: FRET-melting, duplex control FdxT; type: binding; settings: DNA 0.2 μM, 10 mM KCl, 90 mM LiCl, pH 7.2, hairpin duplex
Experimental: as §2

[8] = system: MDA-MB-231; test: MTT antiproliferative assay, MDA-MB-231; type: cell-based, human; settings: for IC50: MTT, 72 h, breast cancer cells, read-out: IC50 Values (μM) ± SEM MDA-MB-231
Experimental: as §1

[9] = system: FBCL-2T; test: FRET-melting, FBCL-2T; type: binding; settings: DNA 0.2 μM, 10 mM KCl, 90 mM LiCl, pH 7.2
Experimental: as §2

[10] = system: SiHa; test: MTT antiproliferative assay, SiHa; type: cell-based, human; settings: for IC50: Homo sapiens, SiHa, MTT, 72 h, cervical cancer cells, read-out: IC50 Values (μM) ± SEM SiHa
Experimental: as §1

[11] = system: FK-RAST; test: FRET-melting, FK-RAST; type: binding; settings: DNA 0.2 μM, 10 mM KCl, 90 mM LiCl, pH 7.2
Experimental: as §2

[12] = system: Fc-MYCT (DNA, G4) GGGTGGGTAGGGTGGGTAA; test: FRET melting; settings: 1 mM K+, 99 mM Li+ (table footnote says 10 mM KCl, 90 mM LiCl); 10 mM lithium cacodylate pH 7.2; 0.2 µM DNA, 2 µM compound
[13] = system: FdxT (DNA, hairpin, hexaethylene glycol linker between 10 and 11) TATAGCTATATATAGCTATA; test: FRET melting; settings: 10 mM K+, 90 mM Li+, 10 mM lithium cacodylate pH 7.2, 0.2 µM DNA
[14] = system: telomerase; test: Telomerase activity (TRAP assay) in MCF-7 cell lysates; type: biochemical, human; settings: MCF-7 cell lysate
Experimental: Telomerase activity was assessed using the TRAP assay kit (TRAPeze® RT telomerase detection kit, Chemicon, Millipore Sigma S7700, Merck KGaA, Darmstadt, Germany) according to manufacturer’s instructions with some modifications. Briefly, […] in CHAPS lysis buffer and proteins were extracted. Protein extracts and various concentrations of compounds (0 to 5 µM) were used to extend a synthetic telomeric DNA using an enzymatic reaction (30 °C during 20 min), followed by a quantification of telomeric DNA using a telomeric PCR amplification: 95 °C for 3 min, 2 cycles of 95 °C for 20 s, and 49 °C for 20 s, followed by 30 cycles 95 °C for 20 s and 60 °C for 20 s with signal acquisition) in a Stratagene Mx3005P system (Agilent, Les Ulis, France) using specific telomeric PCR quantitative primers. Each sample was measured in technical duplicate with control DNA. For each drug and each dilution, we used biological triplicate of cell lysates.

[15] = system: HEK293; test: MTT proliferation test on normal cells, HEK293; type: cell-based; settings: Homo sapiens, normal epithelial cells, cytotoxicity, read-out: IC50 Values (μM) ± SEM HEK293
Experimental: The MTT proliferation test on the epithelial cell line HEK293 was performed as pre-viously described. The 50% inhibiting concentrations (IC50) were determined by linear regression analysis.

[16] = system: F21T (DNA, G4) GGGTTAGGGTTAGGGTTAGGG; test: FRET melting; settings: 10 mM K+, 90 mM Li+, 10 mM lithium cacodylate pH 7.2, 0.2 µM DNA
[17] = system: FK-RAST (DNA, G4) AGGGCGGTGTGGGAAGAGGGA; test: FRET melting; settings: 10 mM K+, 90 mM Li+; 10 mM lithium cacodylate pH 7.2; 0.2 µM DNA, 2 µM compound

Row | SMILES | IC50 [1] | IC50 [2] | IC50 [3] | ΔT1/2 (°C) F21T ([4]; ligand 2 μM) | ΔT1/2 (°C) Fc-MYCT ([5]; ligand 2 μM) | IC50 ([6]; Homo sapiens, MCF7, 72 h) | ΔT1/2 (°C) FdxT ([7]; ligand 2 μM) | IC50 ([8]; Homo sapiens, MDA-MB-231, 72 h) | ΔT1/2 (°C) FBCL-2T ([9]; ligand 2 μM) | IC50 [10] | ΔT1/2 (°C) FK-RAST ([11]; ligand 2 μM) | also measured
1 | CN(C)CCCNCc1ccc(-c2cc(-c3ccc(CNCCCN(C)C)cc3)c3cccc(-c4ccccc4)c3n2)cc1 [Compound 13e, 2,4-bis{4-[(3-dimethylaminopropyl)aminomethyl]phenyl}-8-phenylquinoline] | 1.5 ± 0.34 µM | 7 ± 0.1 µM | 1.28 ± 0.21 µM | 15.9 ± 0.4 °C | 5.5 ± 0.9 °C | 1.12 ± 0.1 µM | 0.2 ± 0.1 °C | 1.21 ± 0.03 µM | 8.3 ± 0.1 °C | 1.07 ± 0.45 µM | 11.6 ± 1.4 °C | ΔT1/2 [12]: 5.5 ± 0.9 °C
2 | CN1CCN(CCCNCc2ccc(-c3cc(-c4ccc(CNCCCN5CCN(C)CC5)cc4)c4cc(-c5ccccc5)ccc4n3)cc2)CC1 |  |  |  |  |  |  |  |  |  |  |  | ΔT1/2 ([13]; 2 µM compound): 0.1 ± 0.2 °C
3 | CN1CCN(CCCNCc2ccc(-c3nc(-c4ccc(CNCCCN5CCN(C)CC5)cc4)c4ccc(-c5ccccc5)cc4n3)cc2)CC1 [Compound 12i] | 1.14 ± 0.16 µM | 23 ± 0.5 µM | 1.15 ± 0.36 µM | 18.6 ± 0.2 °C | 12.5 ± 0.7 °C | 0.67 ± 0.31 µM | 1.9 ± 0.1 °C | 0.52 ± 0.02 µM | 14.8 ± 0.7 °C | 0.92 ± 0.24 µM | 20.2 ± 0.5 °C | Selectivity Index HEK293/A2780 ([1]; IC50 HEK293 / IC50 A2780): >26.3; Selectivity Index HEK293/K562 ([2]; IC50 HEK293 / IC50 K562): >1.30; Selectivity Index HEK293/HeLa ([3]; IC50 HEK293 / IC50 HeLa): >26.1; telomerase activity compared to control ([14]; 5 µM compound): reduced drastically; concentration from which MCF-7 telomerase activity is decreased ([14]; 0 to 5 µM tested): 5 µM; Selectivity Index HEK293/MCF-7 ([6]; IC50 HEK293 / IC50 MCF-7): >44.8; Selectivity Index HEK293/MDA-MB-231 ([8]; IC50 HEK293 / IC50 MDA-MB-231): >57.7; Selectivity Index HEK293/SiHa ([10]; IC50 HEK293 / IC50 SiHa): >32.6; IC50 [15]: > 30 µM
4 | CN(C)CCCNCc1ccc(-c2nc(-c3ccc(CNCCCN(C)C)cc3)c3c(-c4ccccc4)cccc3n2)cc1 [Compound 12a, 2,4-bis{4-[(3-dimethylaminopropyl)aminomethyl]phenyl}-5-phenylquinazoline] | 2.6 ± 0.03 µM | 14 ± 0.2 µM | 1.36 ± 0.04 µM | 6.8 ± 0.8 °C | 9.3 ± 0.3 °C | 1.12 to 1.24 µM | 0.9 ± 0.2 °C | 1.45 µM | 7.4 ± 0.9 °C | 0.62 ± 0.12 µM | 10.6 ± 0.6 °C | IC50 [6]: 1.12 ± 0.13 µM; ΔT1/2 ([16]; 2 µM compound): 6.8 ± 0.8 °C; IC50 [8]: 1.45 ± 0.14 µM; ΔT1/2 [17]: 10.6 ± 0.6 °C
5 | C[n+]1cc(NC(=O)c2ccc3ccc4ccc(C(=O)Nc5cc6ccccc6[n+](C)c5)nc4c3n2)cc2ccccc21 [PhenDC3, reference compound] |  |  |  |  |  |  |  |  |  |  |  | ΔT1/2 (°C) F21T ([4]; ligand 0.5 μM): 21.2 ± 0.5 °C; ΔT1/2 (°C) Fc-MYCT ([5]; ligand 0.5 μM): 11.5 ± 0.3 °C; ΔT1/2 ([16]; 0.5 µM compound): 21.2 ± 0.5 °C; ΔT1/2 (°C) FdxT ([7]; ligand 0.5 μM): −0.6 ± 0.1 °C; ΔT1/2 ([13]; 0.5 µM compound): -0.6 ± 0.1 °C; ΔT1/2 (°C) FBCL-2T ([9]; ligand 0.5 μM): 13.1 ± 0.1 °C; ΔT1/2 (°C) FK-RAST ([11]; ligand 0.5 μM): 16.9 ± 0.4 °C
